Experimental data from patent US20220152117A1, “METHODS OF PROMOTING CELLULAR MATURATION WITH AMPK ACTIVATORS” (UNIVERSITY OF WASHINGTON, priority 2019, published 2022).

Columns and labels:
Assay type in all cases: cell-based, human
hPSC-CMs [1] = experiment: Mitochondrial oxidation of glucose, Seahorse XF96 maximum respiration capacity; conditions: AICAR treated vs control
Description: The Seahorse XF96 extracellular flux Analyzer™ was used to assess mitochondria function with glucose as substrate. Cell preparation and treatment for this assay were the same as the palmitate assay. On the assay day, culture medium was changed to base media (unbuffered DMEM, Sigma D5030, supplemented with 2 mM glutamine, 25 mM glucose, 1 mM pyruvate) 1 hour before the assay and for the duration of the measurement. Selective inhibitors were injected during the measurements to achieve final concentrations of oligomycin at 2.5 μM, FCCP at 1 μM, rotenone at 2.5 μM, and antimycin A at 2.5 μM. The OCR values were further normalized to the number of cells present in each well, quantified by Hoechst staining. Maximal OCR was the OCR difference between uncoupler FCCP and ATPase inhibitor oligomycin. Due to variations in the absolute magnitude of OCR measurements in different experiments, the relative AICAR treated/untreated control levels were used to compare and summarize independent biological replicates (N=6).

hiPSC-derived neurons = experiment: mtDNA:nDNA ratio by quantitative PCR in neurons; conditions: two weeks of treatment with AICAR every third day
hiPSC-CMs = experiment: mtDNA to nDNA ratio by q-PCR in cardiomyocytes; conditions: relative to control hiPSC-CMs
From the text: Mitochondrial DNA (mtDNA) to nuclear DNA (nDNA) ratio was estimated by q-PCR. For this purpose, a mtDNA fragment within the NADH dehydrogenase 1 (ND 1) gene and a region of the nuclear DNA-encoded lipoprotein lipase gene (LPL) were amplified. The primer sequences for ND 1 and LPL were adapted from^30. Total DNA was extracted using Qiagen DNeasy Kit™.

hPSC-CMs [2] = experiment: Quantitative RT-PCR gene expression in cardiomyocytes
Description: Total RNA was isolated using the Qiagen RNeasy Kit™, and mRNA was reverse transcribed using the Superscript™ III first strand cDNA synthesis kit (Invitrogen®). All primers were purchased from Real Time Primers, and qRT-PCR was performed using SYBR™ green chemistry and an ABI 7900HT instrument or TAQMAN™ with BIORad CXF384™. Samples were normalized using hypoxanthine-guanine phosphoribosylthransferase (HPRT) as a housekeeping gene. The sequences of the primers are listed below in Table 1. The primers used for titin isoforms were adapted from^29. All Q-RT-PCR assays were performed in triplicate on control and experimental groups and firstly normalized to hHPRT level and then normalized against control cardiomyocytes. N=4-5 independent experiments.

[3] = test system: neurons derived from an FAD patient cell line harboring a duplication of the APP gene; experiment: Secreted amyloid beta peptides in neuronal culture media by ELISA; conditions: three-week neuronal differentiation, at each week
Description: Undifferentiated human IMR90-induced pluripotent stem cells, originally derived from lung fibroblasts^22 (James A. Thomson, University of Wisconsin-Madison), were expanded using mouse embryonic fibroblast-conditioned medium supplemented with 5 ng/ml basic fibroblast growth factor. Cardiomyocytes were obtained using a previously described protocol^2 that involves the serial application of activin A and bone morphogenetic protein-4 (BMP4) under serum-free, monolayer culture conditions. The cultures were also supplemented with the Wnt agonist CHIR99021 in the early stages of differentiation followed by the Wnt antagonist Xav939. In this study, cardiomyocytes derived from human undifferentiated IMR90-induced stem cells were used, and for brevity, these are referred to human induced pluripotent stem cell-derived cardiomyocytes (hiPSC-CM). After 20 days of in vitro differentiation, the cells were dispersed using 0.05% trypsin-EDTA and re-plated. Cultures were fed every other day thereafter with serum-free RPMI-B27 plus insulin. Only cell preparations containing >80% cardiac troponin T-positive cardiomyocytes (by flow cytometry) were used for the current investigation. […]
Secreted Amyloid beta (Ab) peptides were measured from the neuronal culture media at one, two and three-week time points after AICAR treatment by ELISA assay (Meso Scale Discovery®).

[4] = AICAR treated vs control hPSC-CMs
[5] = hPSC-CMs, normalized to HPRT then to control cells
[6] = normalized to HPRT then to control cells

NC(=O)c1ncn([C@@H]2O[C@H](CO)[C@@H](O)[C@H]2O)c1N [AICAR, 5-amino-4-imidazolecarboxamide riboside-1-β-D-ribofuranoside]
maximum mitochondrial respiration capacity (hPSC-CMs [1]): significantly increased | mtDNA/nDNA ratio in neurons (hiPSC-derived neurons): increase | increase in the ratio of mtDNA to nDNA (hiPSC-CMs): 55% | cTnI expression levels (hPSC-CMs [2]; [4]): upregulated | ssTnI to cTnI ratio (hPSC-CMs [2]; [4]): significantly downregulated | titin N2B expression level (hPSC-CMs [2]; [4]): significantly upregulated | titin N2BA expression level (hPSC-CMs [2]; [4]): did not change | titin N2BA to N2B ratio (hPSC-CMs [2]; [4]): significantly down-regulated | total titin expression level (hPSC-CMs [2]; [4]): did not change | FABP and PDK4 gene expression levels in cardiomyocytes derived from RUES2 hESCs (hPSC-CMs [2]; RUES2 hESC-derived cardiomyocytes): same trend of changes | fatty acid binding protein (FABP) expression level (hPSC-CMs [2]; [5]): significant increase | pyruvate dehydrogenase kinase-4 (PDK4) expression level (hPSC-CMs [2]; [5]): significant increase | PGC-1α mRNA level (hPSC-CMs [2]; [6]): 2.07±0.31 | estrogen-related receptor α (ERR α) mRNA level (hPSC-CMs [2]; [6]): 1.50±0.12 | mitochondrial transcription factor A (TFAM) mRNA level (hPSC-CMs [2]; [6]): 2.03±0.11 | peroxisome proliferator activated receptor alpha (PPARα) mRNA level (hPSC-CMs [2]; [6]): 1.78±0.22 | KCNJ2 expression (hPSC-CMs [2]; vs. control): 1.71±0.17 fold | SCN5a expression (hPSC-CMs [2]; vs. control): 1.58±0.2 fold | α-myosin heavy chain (α-MHC) expression (hPSC-CMs [2]; vs. control): 2.64±0.51 fold | levels of secreted Ab1-40 peptides [3]: significantly reduced | levels of secreted Ab1-42 peptides [3]: significantly reduced
